# Experimental data taken from US20260283972A1, “A COMPOUND FOR PREPARING LIPID NANOPARTICLES ENCAPSULATING AN AGENT, NANOPARTICLE COMPOSITION COMPRISING SAID COMPOUND AND RELATED METHODS THEREOF” (AGENCY FOR SCIENCE, TECHNOLOGY AND RESEARCH, priority 2023, published 2026).
# “Also recorded” adds a separate entry of the source.
# Assays:
# Type in all cases: cell-based
# SH-SY5Y cells = assay: In vitro neurotoxicity, cell viability (AlamarBlue)
# Experimental: HEK293 cells were grown in Dulbecco's […] (DMEM) supplemented with 10% FBS and 5% penicillin/streptomycin (Corning). SY-SY5Y cells were grown with a mixture of DMEM/Ham's F-12 with 2 mM L-glutamine (50:50 v/v) supplemented with 10% FBS and 5% penicillin/streptomycin. All cultures were grown in 37° C. incubators supplemented with 5% CO2 and were cultured according to suppliers' instructions. For all screening, cells were plated in 96-well plates at 10,000 cells per well in 100 μL of the appropriate media outlined above for the different cells. The formulated LNPs containing polymyxin B and free polymyxin B were then added to the wells at the desired polymyxin B concentration (e.g., 300, 150, 75, 37.5, 18.8, 9.4 μg mL^−1). The polymyxin B concentration of formulated LNPs was determined using the calibration plot of polymyxin B standards.
# [1] = system: Escherichia coli (ATCC No. 25922); assay: Antibacterial activity in vitro, broth microdilution MIC and MBC; conditions: for MIC E. coli: 24 h at 37° C.
# Experimental: (§1) The MICs (minimum inhibitory concentrations) of the formulated LNPs containing polymyxin B and free polymyxin B against Gram-negative bacteria were determined using a broth microdilution method. Briefly, the bacteria were incubated overnight in MHB, and the bacteria suspension was diluted with MHB to achieve a concentration of […] (CFU)/mL (O.D. 600=0.100). This was followed by a 1000-fold dilution in MHB. The bacterial suspension was then seeded into a 96-well plate (80 μL per well) and mixed with 20 μL of MHB containing different polymyxin B-loaded LNPs or free polymyxin B concentrations. The 96-well plate was incubated for 24 h at 37° C. (bacteria). […] The MIC experiments were performed with four independent replicates. The MBCs (minimum bactericidal concentrations) were evaluated at the end of the MIC experiment.
# (§2) The microbial suspension was then spread on LB agar plates, and the plates were incubated at 37° C. for 24 h to determine CFU on each agar plate. The experiments were performed in replicates of five. The MBC experiment was conducted with three independent replicates.
# [2] = system: Pseudomonas aeruginosa (ATCC No. 9027); assay: as above; conditions: for MIC P. aeruginosa: 24 h at 37° C.
# Experimental: as §1, §2
# [3] = Table 6, experiment with 2nd formulation
# [4] = Table 7, experiment with 1st formulation
substance,measurement,setting,value
Polymyxin B [Polymyxin B (PB)],viability of SH-SY5Y cells,"SH-SY5Y cells; 300 μg mL^−1 of polymyxin B, 24 h incubation",~ 76%
same,neurotoxicity / cell toxicity against SH-SY5Y,"SH-SY5Y cells; high concentration, 300 μg mL^−1, listed as free polymyxin B",relatively pronounced cell toxicity; also recorded: Pronounced neurotoxicity was observed
same,MBC E. coli,[1]; [3],5.0 µg/mL
same,MIC E. coli,[1]; [3],1.25 µg/mL
same,MBC E. coli,[1]; [4],5.0 µg/mL
same,MIC E. coli,[1]; [4],5.0 µg/mL
same,MBC P. aeruginosa,[2]; [3],2.50 µg/mL
same,MIC P. aeruginosa,[2]; [3],1.25 µg/mL
same,MBC P. aeruginosa,[2]; [4],5.0 µg/mL
same,MIC P. aeruginosa,[2]; [4],5.0 µg/mL
